This test concerns 889142-216-R-J1-PDC complex spheroid viability. Description: Anticancer human tumor 889142-216-R-J1-PDC patient-derived bladder carcinoma cell line growth inhibition [POLQ]. Conditions: for viability, T/C: stronger effect = lower value. As to the method: Multicellular complex tumor spheroid response to Polymerase (POL) inhibitors (novobiocin, ART-558, RP6685) in combination with a variety of drugs and investigational agents in selected tumor cell lines
The POL inhibitors (novobiocin, ART-558, and RP6685) were evaluated both individually and in combination with standard of care and investigational anticancer small molecules within a complex spheroid model of solid tumors. . Complex spheroids include a stromal component modeled by human endothelial cells (HUVEC) and fibroblasts modeled by human mesenchymal stem cells (MSCs). The concentration ranges selected for each drug and investigational agent were based upon clinically achievable concentrations if the clinical Cmax of the agent was known.
Compounds. The drugs and investigational agents: novobiocin (NSC847541), ART-558 (NSC835418), RP-6685 (NSC848927), peposertib (NSC802822), ceralasertib (NSC780249), elimusertib (NSC800525), camonsertib (NSC841442), AZD-1390 (NSC803789), olaparib (NSC753686), talazoparib (NSC767125), rucaparib (NSC756644), sotorasib (NSC818433), MRTX-1133 (NSC836407), SN-38 (NSC673596), topotecan (NSC609699), epotoside (NSC141540), doxorubicin (NSC123127), gemcitabine (NSC613327), 5-fluorouracil (NSC19893), paclitaxel (NSC125973), vemurafenib (NSC761431), MSA-2 (NSC828583), SN-011 (NSC837082), adavosertib (NSC754352), prexasertib (NSC758257), carboplatin (NSC241240) and oxaliplatin (NSC266046), were obtained from the National Cancer Institute (NCI) Developmental Therapeutics Program Chemical Repository (21). The FDA-approved anticancer drug set is available from the Developmental Therapeutics Program at https://dtp.cancer.gov/organization/dscb/obtaining/. […] The stock solutions were prepared in dimethyl sulfoxide (DMSO, Sigma-Aldrich, St. Louis, MO, cat. D2650), except for the platinum compounds which were prepared in saline (Quality Biological, Gaithersburg, MD, cat. 114-055-101), at 800-fold the tested concentration and stored at -70 degrees C prior to their use. All drugs and investigational agents were tested over a range starting from a high concentration at or near the clinical Cmax and decreasing in half-log increments. If the clinical Cmax for an agent had not been determined, the highest concentration tested was 10 microM, except for SN-38, which was tested at a high concentration of 1 microM.
Cell Culture. All cells were maintained in an incubator at 37 degrees C and 5% CO2 with 95% humidity. The PDC lines were cultured according to standard operating procedures established by the NCI PDMR (https://pdmr.cancer.gov). Table 3 of the manuscript, lists the cell lines along with the number of the three cell types plated to form the mct-spheroids and media for tumor cell growth. After thawing, all PDC lines, except 997537-175-T-J1-PDC and 415267-285-R-J2-PDC, were cultured in Matrigel-coated flasks prepared with a working solution of 1X Ham's F-12 nutrient mix, without supplementation (Thermo Fisher Scientific, cat. 11765054), 100 U/mL penicillin-streptomycin (Thermo Fisher Scientific, cat. 15140122), and 2.5% Matrigel (Corning Inc., Corning, NY, cat. 354248) for the first three passages. The two PDC lines 997537-175-T-J1-PDC and 415267-285-R-J2-PDC were cultured on uncoated flasks. The 857933-349-R-J2-PDC line was cultured in 6C/Colon 1B media containing advanced DMEM/F-12 (Thermo Fisher Scientific, cat. 12634028), 10 mM HEPES (Thermo Fisher Scientific, cat. 15630080), 1X GlutaMAX supplement (Thermo Fisher Scientific, cat. 35050061), 0.1 mg/mL primocin (InvivoGen, San Diego, CA, cat. ant-pm-2), 10% defined fetal bovine serum, heat inactivated (HyClone Laboratories Inc., Logan, UT, cat. SH30070.03HI), 50% L-WRN conditioned media (ATCC, cat. CRL-3276), 1.25 mM N-Acetyl-L-cysteine (Sigma-Aldrich, cat. A9165), 10 mM nicotinamide (Sigma-Aldrich, cat. N0636), 1X B-27 supplement (Thermo Fisher Scientific, cat. 17504044), 1X N-2 supplement (Thermo Fisher Scientific, cat. […]

Where [1] appears, read: curve of first compound, second compound 0.0316 µM.
Setting [2] is: curve of first compound, second compound 0.1 µM.
Setting [3] is: curve of first compound, second compound 0.316 µM.
The mark [4] stands for this setting: curve of first compound, second compound 1 µM.
Where [5] appears, read: curve of first compound, second compound 3.16 µM.
Where [6] appears, read: curve of first compound, second compound 10 µM.
Setting [7] is: second compound 0.0316 µM, first compound 0.0316 µM.
The mark [8] stands for this setting: second compound 0.0316 µM, first compound 0.1 µM.
Where [9] appears, read: second compound 0.0316 µM, first compound 0.316 µM.
[10] abbreviates: second compound 0.0316 µM, first compound 1 µM.
The mark [11] stands for this setting: second compound 0.1 µM, first compound 0.0316 µM.
The mark [12] stands for this setting: second compound 0.1 µM, first compound 0.1 µM.
The mark [13] stands for this setting: second compound 0.1 µM, first compound 0.316 µM.
Where [14] appears, read: second compound 0.1 µM, first compound 1 µM.
Setting [15] is: second compound 0.316 µM, first compound 0.0316 µM.
The mark [16] stands for this setting: second compound 0.316 µM, first compound 0.1 µM.
Where [17] appears, read: second compound 0.316 µM, first compound 0.316 µM.
Where [18] appears, read: second compound 0.316 µM, first compound 1 µM.
[19] abbreviates: second compound 1 µM, first compound 0.0316 µM.
[20] abbreviates: second compound 1 µM, first compound 0.1 µM.
[21] abbreviates: second compound 1 µM, first compound 0.316 µM.
Where [22] appears, read: second compound 1 µM, first compound 1 µM.
Setting [23] is: second compound 3.16 µM, first compound 0.0316 µM.
The mark [24] stands for this setting: second compound 3.16 µM, first compound 0.1 µM.
Where [25] appears, read: second compound 3.16 µM, first compound 0.316 µM.
[26] abbreviates: second compound 3.16 µM, first compound 1 µM.
Setting [27] is: second compound 10 µM, first compound 0.0316 µM.
[28] abbreviates: second compound 10 µM, first compound 0.1 µM.
[29] abbreviates: second compound 10 µM, first compound 0.316 µM.
Setting [30] is: second compound 10 µM, first compound 1 µM.

“And” between values parts separate entries of the source, which are not always exact repeats. Equal values may be shown once. Bounds are passed on as bounds.
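Note: spheroids exposed to compounds for seven days.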

Usually IC50 stands for the concentration needed to halve the response being measured. One may read the viability, T/C as the ratio of treated to control. For `CC1COCCN1c1cc(-c2ccnn2C)c2ccnc(-c3ccn[nH]3)c2n1` (stereo not given) + Cc1cccc(N(C)C(=O)C2C(O)CCN2c2nc(C)cc(C(F)(F)F)c2C#N)c1, the half-inhibitory concentration (IC50) by setting is: under setting [1], 215 nM; under setting [2], 144 nM; under setting [3], 162 nM; under setting [4], 264 nM; under setting [5], 242 nM; under setting [6], 154 nM. Besides, the viability, T/C is 84.3% under setting [7]; 52.8% under setting [8]; 50.3% under setting [9]; 37.8% under setting [10]; 31.6% (second compound 0.0316 µM, first compound 3.16 µM); 25.9% (second compound 0.0316 µM, first compound 10 µM). The viability, T/C under setting [11] is 67.9%; the viability, T/C under setting [12] was 55%; the viability, T/C under setting [13] is 40.4%; the viability, T/C under setting [14] was 34.7%; the viability, T/C (second compound 0.1 µM, first compound 3.16 µM) is 32.2%; the viability, T/C (second compound 0.1 µM, first compound 10 µM) was 25.8%. Moreover, the viability, T/C is, setting by setting: under setting [15], 79.9%; under setting [16], 54%; under setting [17], 43.4%; under setting [18], 33.9%; (second compound 0.316 µM, first compound 3.16 µM) 29.4%; (second compound 0.316 µM, first compound 10 µM) 25.8%. Also, the viability, T/C runs as follows: under setting [19], 74.3%; under setting [20], 59.2%; under setting [21], 45.9%; under setting [22], 41.7%; (second compound 1 µM, first compound 3.16 µM) 32.3%; (second compound 1 µM, first compound 10 µM) 26.9%. Besides, the viability, T/C by setting is: under setting [23], 76.3%; under setting [24], 56.4%; under setting [25], 42.5%; under setting [26], 48.9%; (second compound 3.16 µM, first compound 3.16 µM) 32.2%; (second compound 3.16 µM, first compound 10 µM) 27.9%. For the same compound, the viability, T/C runs as follows: under setting [27], 57.4%; under setting [28], 56.5%; under setting [29], 40.8%; under setting [30], 34.7%; (second compound 10 µM, first compound 3.16 µM) 30.6%; (second compound 10 µM, first compound 10 µM) 26.9%.
As for `C#Cc1c(F)ccc2cc(O)cc(-c3ncc4c(N5CC6CCC(C5)N6)nc(OCC56CCCN5CC(F)C6)nc4c3F)c12` (stereo not given), the viability, T/C (compound 0.0316 µM) was 97.4% and 84.7% and 98.7%; the viability, T/C (compound 0.1 µM) was 87.7% and 85.2% and 98.1%; the viability, T/C (compound 0.316 µM) is 79.3% and 79.1% and 79.6%; the viability, T/C (compound 1 µM) is 67.5% and 74.8% and 66.9%; the viability, T/C (compound 3.16 µM) is 80.7% and 73.1% and 71.4%; the viability, T/C (compound 10 µM) is 37.6% and 42.5% and 32%. Further, the IC50 (curve of compound) was 6760 nM and 7470 nM and 4990 nM.
As to `O=C(Nc1ccc(O)c(NS(=O)(=O)c2ccc(F)cc2)c1)c1ccc(-c2ccccc2)cc1`, the viability, T/C reads like this: (compound 0.0316 µM) 91.2% and 109% and 105%; (compound 0.1 µM) 85.2% and 97.7% and 112%; (compound 0.316 µM) 114% and 129% and 88%; (compound 1 µM) 112% and 139% and 119%; (compound 3.16 µM) 101% and 130% and 122%; (compound 10 µM) 75.8% and 76.8% and 71.4%. In addition, the half-maximal inhibitory concentration (IC50) (curve of compound) is greater than 10000 nM.
On to `COc1cc2cc(C(=O)CCC(=O)O)sc2cc1OC`, for which the viability, T/C (compound 0.0316 µM) is 105% and 116% and 128%; the viability, T/C (compound 0.1 µM) was 140% and 92% and 89.7%; the viability, T/C (compound 0.316 µM) is 89.4% and 92.1% and 94.9%; the viability, T/C (compound 1 µM) was 115% and 88.4% and 103%; the viability, T/C (compound 3.16 µM) was 79.9% and 80.8% and 98%; the viability, T/C (compound 10 µM) was 67.3% and 72.8% and 95.3%. Further, the IC50 (curve of compound) was greater than 10000 nM.
On to `C=CCn1c(=O)c2cnc(Nc3ccc(N4CCN(C)CC4)cc3)nc2n1-c1cccc(C(C)(C)O)n1` + Cc1cccc(N(C)C(=O)C2C(O)CCN2c2nc(C)cc(C(F)(F)F)c2C#N)c1, for which the half-inhibitory concentration (IC50) under setting [1] is greater than 1000 nM; the half-inhibitory concentration (IC50) under setting [2] was greater than 1000 nM; the half-inhibitory concentration (IC50) under setting [3] is greater than 1000 nM; the half-inhibitory concentration (IC50) under setting [4] is greater than 1000 nM; the IC50 under setting [5] was greater than 1000 nM; the half-inhibitory concentration (IC50) under setting [6] is greater than 1000 nM. The viability, T/C runs as follows: (second compound 0.0316 µM, first compound 0.00316 µM) 113%; (second compound 0.0316 µM, first compound 0.01 µM) 93.8%; under setting [7], 103%; under setting [8], 101%; under setting [9], 90%; under setting [10], 55.5%. Moreover, the viability, T/C reads like this: (second compound 0.1 µM, first compound 0.00316 µM) 99.3%; (second compound 0.1 µM, first compound 0.01 µM) 115%; under setting [11], 104%; under setting [12], 90.1%; under setting [13], 106%; under setting [14], 54.4%. Also, the viability, T/C is, setting by setting: (second compound 0.316 µM, first compound 0.00316 µM) 129%; (second compound 0.316 µM, first compound 0.01 µM) 89.5%; under setting [15], 99.2%; under setting [16], 95.8%; under setting [17], 75%; under setting [18], 69.3%. Further, the viability, T/C is 118% (second compound 1 µM, first compound 0.00316 µM); 84.4% (second compound 1 µM, first compound 0.01 µM); 88.9% under setting [19]; 85.2% under setting [20]; 90.5% under setting [21]; 61.8% under setting [22]. In addition, the viability, T/C (second compound 3.16 µM, first compound 0.00316 µM) is 117%; the viability, T/C (second compound 3.16 µM, first compound 0.01 µM) was 113%; the viability, T/C under setting [23] is 78.2%; the viability, T/C under setting [24] is 111%; the viability, T/C under setting [25] is 80.8%; the viability, T/C under setting [26] is 59.8%. Further, the viability, T/C is, setting by setting: (second compound 10 µM, first compound 0.00316 µM) 108%; (second compound 10 µM, first compound 0.01 µM) 127%; under setting [27], 116%; under setting [28], 77%; under setting [29], 70.2%; under setting [30], 54.7%.
